Measured values from US4755509A, “Heterocyclic aldose reductase inhibitors and methods of using them” (Carbipem, priority 1984, dated 1988).
Where a name gives a salt, the structure may show the parent alone.

The molecules below were run against T1, aldose reductase (Rattus norvegicus, UniProt P07943) (assay: in vitro inhibition of aldose reductase from rat lens homogenate (DL-glyceraldehyde substrate, NADPH, spectrophotometry at 340 nm)). Details: concentration 10^-4 mol/liter; read-out: Inhibition relative to the control activity, %.
T1 construct: rat lens homogenate used as a source of enzyme; from tissue; host or cells: rat lens homogenate
Assay type: biochemical
Procedure: The inhibitory activity on aldose reductase is evaluated in vitro starting from a rat lens homogenate used as a source of enzyme. The substrate used is DL-glyceraldehyde, which is converted by aldose reductase to glycerol in the presence of NADPH (*). This reaction is followed by spectrophotometry at 340 nm in the absence and in the presence of the inhibitors to be tested, the variation in optical density being proportional to the oxidation of the reduced coenzyme.
The results are shown in Table I below and represent, for different examples, the percentage inhibition of the enzymatic activity, relative to the control activity, as a function of the different concentrations (mol.l^-1) used.

Structure (SMILES) | inhibition at 100 µM [%]
O=C(O)CN1C(=O)CSc2ncccc21 [Example 110, Pyrido[2,3-b]thiazin-2(3H)-one-1-acetic acid] | 95
O=C(O)CN1C(=O)CSc2nc(Cl)ccc21 [Example 111, 6-Chloropyrido[2,3-b]thiazin-2(3H)-one-1-acetic acid] | 96
O=C(O)CN1C(=O)CNc2ncccc21 [Example 114, Pyrido[2,3-b][1,4]pyrazin-2(3H)-one-1-acetic acid hydrochloride] | 95
O=C(O)CN1C(=O)CSc2ccc(C(F)(F)F)cc21 [Example 115, 6-Trifluoromethyl-2H-1,4-benzothiazin-3-one-4-acetic acid] | 90
O=C(O)CN1C(=O)CSc2cc(F)ccc21 [Example 116, 7-Fluoro-2H-1,4-benzothiazin-3-one-4-acetic acid] | 100
O=C(O)CN1C(=S)CSc2cc(F)ccc21 [Example 117, 7-Fluoro-2H-1,4-benzothiazine-3-thione-4-acetic acid] | 100
O=C(O)CN1C(=O)CSc2ccc(F)cc21 [Example 118, 6-Fluoro-2H-1,4-benzothiazin-3-one-4-acetic acid] | 98
O=C(O)CN1C(=S)CSc2ccc(F)cc21 [Example 119, 6-Fluoro-2H-1,4-benzothiazine-3-thione-4-acetic acid] | 100
O=C(O)CN1C(=O)CSc2cc(Cl)ccc21 [Example 121, 7-Chloro-2H-1,4-benzothiazin-3-one-4-acetic acid] | 97
O=C(O)CN1C(=O)CSc2cc(Cl)c(C(F)(F)F)cc21 [Example 123, 6-Trifluoromethyl-7-chloro-2H-1,4-benzothiazin-3-one-4-acetic acid] | 97
O=C(O)CN1C(=O)CSc2ccccc21 [Example 124, 2H-1,4-Benzothiazin-3-one-4-acetic acid] | 97
CC1Sc2ccccc2N(CC(=O)O)C1=O (stereo not shown) [Example 125, 2-Methyl-2H-1,4-benzothiazin-3-one-4-acetic acid] | 99
CC1(c2ccccn2)Sc2ccccc2N(CC(=O)O)C1=O (stereo not shown) [Example 151, 2-Methyl-2-(pyridin-2'-yl)-2H-1,4-benzothiazin-3-one-4-acetic acid] | 96
O=C(O)CN1C(=S)COc2ccc(F)cc21 [Example 152, 6-Fluoro-2H-1,4-benzoxazine-3-thione-4-acetic acid] | 100

Same assay, conditions: concentration 10^-5 mol/liter; read-out: Inhibition relative to the control activity, %

Structure (SMILES) | inhibition at 10 µM [%]
O=C(O)CN1C(=O)CSc2ncccc21 [Example 110, Pyrido[2,3-b]thiazin-2(3H)-one-1-acetic acid] | 82
O=C(O)CN1C(=O)CSc2nc(Cl)ccc21 [Example 111, 6-Chloropyrido[2,3-b]thiazin-2(3H)-one-1-acetic acid] | 80
O=C(O)CN1C(=O)CNc2ncccc21 [Example 114, Pyrido[2,3-b][1,4]pyrazin-2(3H)-one-1-acetic acid hydrochloride] | 86
O=C(O)CN1C(=O)CSc2ccc(C(F)(F)F)cc21 [Example 115, 6-Trifluoromethyl-2H-1,4-benzothiazin-3-one-4-acetic acid] | 57
O=C(O)CN1C(=O)CSc2cc(F)ccc21 [Example 116, 7-Fluoro-2H-1,4-benzothiazin-3-one-4-acetic acid] | 95
O=C(O)CN1C(=S)CSc2cc(F)ccc21 [Example 117, 7-Fluoro-2H-1,4-benzothiazine-3-thione-4-acetic acid] | 100
O=C(O)CN1C(=O)CSc2ccc(F)cc21 [Example 118, 6-Fluoro-2H-1,4-benzothiazin-3-one-4-acetic acid] | 91
O=C(O)CN1C(=S)CSc2ccc(F)cc21 [Example 119, 6-Fluoro-2H-1,4-benzothiazine-3-thione-4-acetic acid] | 98
O=C(O)CN1C(=O)CSc2cc(Cl)ccc21 [Example 121, 7-Chloro-2H-1,4-benzothiazin-3-one-4-acetic acid] | 92
O=C(O)CN1C(=O)CSc2cc(Cl)c(C(F)(F)F)cc21 [Example 123, 6-Trifluoromethyl-7-chloro-2H-1,4-benzothiazin-3-one-4-acetic acid] | 81
O=C(O)CN1C(=O)CSc2ccccc21 [Example 124, 2H-1,4-Benzothiazin-3-one-4-acetic acid] | 86
CC1Sc2ccccc2N(CC(=O)O)C1=O (stereo not shown) [Example 125, 2-Methyl-2H-1,4-benzothiazin-3-one-4-acetic acid] | 91
O=C(O)CN1C(=S)CSc2cc(Cl)ccc21 [Example 127, 7-Chloro-2H-1,4-benzothiazine-3-thione-4-acetic acid] | 98
O=C(O)CN1C(=S)CSc2cc(Cl)c(C(F)(F)F)cc21 [Example 129, 6-Trifluoromethyl-7-chloro-2H-1,4-benzothiazine-3-thione-4-acetic acid] | 74
O=C(O)CN1C(=S)C(c2ccccc2)Sc2ccccc21 (stereo not shown) [Example 130, 2-Phenyl-2H-1,4-benzothiazine-3-thione-4-acetic acid] | 99
CC1Sc2ccccc2N(CC(=O)O)C1=S (stereo not shown) [Example 132, 2-Methyl-2H-1,4-benzothiazine-3-thione-4-acetic acid] | 95
O=C(O)CN1C(=S)CSc2ccccc21 [Example 133, 2H-1,4-Benzothiazine-3-thione-4-acetic acid] | 98
CC1Sc2ccc(F)cc2N(CC(=O)O)C1=O (stereo not shown) [Example 136, 6-Fluoro-2-methyl-2H-1,4-benzothiazin-3-one-4-acetic acid] | 95
CC1Sc2ccc(F)cc2N(CC(=O)O)C1=S (stereo not shown) [Example 137, 6-Fluoro-2-methyl-2H-1,4-benzothiazine-3-thione-4-acetic acid] | 94
CC1(c2ccccn2)Sc2ccccc2N(CC(=O)O)C1=O (stereo not shown) [Example 151, 2-Methyl-2-(pyridin-2'-yl)-2H-1,4-benzothiazin-3-one-4-acetic acid] | 73
O=C(O)CN1C(=S)COc2ccc(F)cc21 [Example 152, 6-Fluoro-2H-1,4-benzoxazine-3-thione-4-acetic acid] | 99
O=C(O)CN1C(=S)CCc2cc(Cl)ccc21 [Example 154, 6-Chloro-3,4-dihydroquinoline-2-thione-1-acetic acid] | 94

Same assay, conditions: concentration 10^-6 mol/liter; read-out: Inhibition relative to the control activity, %

Structure (SMILES) | inhibition at 1 µM [%]
O=C(O)CN1C(=O)CSc2ncccc21 [Example 110, Pyrido[2,3-b]thiazin-2(3H)-one-1-acetic acid] | 37
O=C(O)CN1C(=O)CNc2ncccc21 [Example 114, Pyrido[2,3-b][1,4]pyrazin-2(3H)-one-1-acetic acid hydrochloride] | 6
O=C(O)CN1C(=O)CSc2cc(F)ccc21 [Example 116, 7-Fluoro-2H-1,4-benzothiazin-3-one-4-acetic acid] | 25
O=C(O)CN1C(=O)CSc2ccc(F)cc21 [Example 118, 6-Fluoro-2H-1,4-benzothiazin-3-one-4-acetic acid] | 10

Same assay, conditions: concentration 10^-7 mol/liter; read-out: Inhibition relative to the control activity, %

Structure (SMILES) | inhibition at 0.1 µM [%]
O=C(O)CN1C(=O)CSc2ncccc21 [Example 110, Pyrido[2,3-b]thiazin-2(3H)-one-1-acetic acid] | 11
O=C(O)CN1C(=O)CSc2nc(Cl)ccc21 [Example 111, 6-Chloropyrido[2,3-b]thiazin-2(3H)-one-1-acetic acid] | 5
O=C(O)CN1C(=O)CSc2ccc(C(F)(F)F)cc21 [Example 115, 6-Trifluoromethyl-2H-1,4-benzothiazin-3-one-4-acetic acid] | 3
O=C(O)CN1C(=S)CSc2cc(F)ccc21 [Example 117, 7-Fluoro-2H-1,4-benzothiazine-3-thione-4-acetic acid] | 65
O=C(O)CN1C(=S)CSc2ccc(F)cc21 [Example 119, 6-Fluoro-2H-1,4-benzothiazine-3-thione-4-acetic acid] | 67
O=C(O)CN1C(=O)CSc2cc(Cl)ccc21 [Example 121, 7-Chloro-2H-1,4-benzothiazin-3-one-4-acetic acid] | 16
O=C(O)CN1C(=O)CSc2cc(Cl)c(C(F)(F)F)cc21 [Example 123, 6-Trifluoromethyl-7-chloro-2H-1,4-benzothiazin-3-one-4-acetic acid] | 0
O=C(O)CN1C(=O)CSc2ccccc21 [Example 124, 2H-1,4-Benzothiazin-3-one-4-acetic acid] | 10
CC1Sc2ccccc2N(CC(=O)O)C1=O (stereo not shown) [Example 125, 2-Methyl-2H-1,4-benzothiazin-3-one-4-acetic acid] | 12
O=C(O)CN1C(=S)CSc2cc(Cl)ccc21 [Example 127, 7-Chloro-2H-1,4-benzothiazine-3-thione-4-acetic acid] | 93
O=C(O)CN1C(=S)C(c2ccccc2)Sc2ccccc21 (stereo not shown) [Example 130, 2-Phenyl-2H-1,4-benzothiazine-3-thione-4-acetic acid] | 95
CC1Sc2ccccc2N(CC(=O)O)C1=S (stereo not shown) [Example 132, 2-Methyl-2H-1,4-benzothiazine-3-thione-4-acetic acid] | 92
O=C(O)CN1C(=S)CSc2ccccc21 [Example 133, 2H-1,4-Benzothiazine-3-thione-4-acetic acid] | 69
CC1Sc2ccc(F)cc2N(CC(=O)O)C1=O (stereo not shown) [Example 136, 6-Fluoro-2-methyl-2H-1,4-benzothiazin-3-one-4-acetic acid] | 30
CC1Sc2ccc(F)cc2N(CC(=O)O)C1=S (stereo not shown) [Example 137, 6-Fluoro-2-methyl-2H-1,4-benzothiazine-3-thione-4-acetic acid] | 80
CC1(c2ccccn2)Sc2ccccc2N(CC(=O)O)C1=O (stereo not shown) [Example 151, 2-Methyl-2-(pyridin-2'-yl)-2H-1,4-benzothiazin-3-one-4-acetic acid] | 16
O=C(O)CN1C(=S)COc2ccc(F)cc21 [Example 152, 6-Fluoro-2H-1,4-benzoxazine-3-thione-4-acetic acid] | 54
O=C(O)CN1C(=S)CCc2cc(Cl)ccc21 [Example 154, 6-Chloro-3,4-dihydroquinoline-2-thione-1-acetic acid] | 56

Same assay, conditions: concentration 10^-8 mol/liter; read-out: Inhibition relative to the control activity, %

Structure (SMILES) | inhibition at 0.01 µM [%]
O=C(O)CN1C(=O)CSc2ncccc21 [Example 110, Pyrido[2,3-b]thiazin-2(3H)-one-1-acetic acid] | 4
O=C(O)CN1C(=S)CSc2cc(F)ccc21 [Example 117, 7-Fluoro-2H-1,4-benzothiazine-3-thione-4-acetic acid] | 5
O=C(O)CN1C(=S)CSc2ccc(F)cc21 [Example 119, 6-Fluoro-2H-1,4-benzothiazine-3-thione-4-acetic acid] | 22
O=C(O)CN1C(=S)CSc2cc(Cl)ccc21 [Example 127, 7-Chloro-2H-1,4-benzothiazine-3-thione-4-acetic acid] | 28
O=C(O)CN1C(=S)CSc2cc(Cl)c(C(F)(F)F)cc21 [Example 129, 6-Trifluoromethyl-7-chloro-2H-1,4-benzothiazine-3-thione-4-acetic acid] | 5
O=C(O)CN1C(=S)C(c2ccccc2)Sc2ccccc21 (stereo not shown) [Example 130, 2-Phenyl-2H-1,4-benzothiazine-3-thione-4-acetic acid] | 17
CC1Sc2ccccc2N(CC(=O)O)C1=S (stereo not shown) [Example 132, 2-Methyl-2H-1,4-benzothiazine-3-thione-4-acetic acid] | 16
O=C(O)CN1C(=S)CSc2ccccc21 [Example 133, 2H-1,4-Benzothiazine-3-thione-4-acetic acid] | 18
CC1Sc2ccc(F)cc2N(CC(=O)O)C1=O (stereo not shown) [Example 136, 6-Fluoro-2-methyl-2H-1,4-benzothiazin-3-one-4-acetic acid] | 11
CC1Sc2ccc(F)cc2N(CC(=O)O)C1=S (stereo not shown) [Example 137, 6-Fluoro-2-methyl-2H-1,4-benzothiazine-3-thione-4-acetic acid] | 13
O=C(O)CN1C(=S)CCc2cc(Cl)ccc21 [Example 154, 6-Chloro-3,4-dihydroquinoline-2-thione-1-acetic acid] | 29

Same assay, conditions: concentration 10^-9 mol/liter; read-out: Inhibition relative to the control activity, %

Structure (SMILES) | inhibition at 0.001 µM [%]
O=C(O)CN1C(=O)CSc2ncccc21 [Example 110, Pyrido[2,3-b]thiazin-2(3H)-one-1-acetic acid] | 9

Same assay, conditions: n = average of 3 determinations (Example 132: average of 2 determinations)

Structure (SMILES) | IC50 [nM]
O=C(O)CN1C(=S)CSc2cc(F)ccc21 [Example 117, 7-Fluoro-2H-1,4-benzothiazine-3-thione-4-acetic acid] | 82 ± 1
O=C(O)CN1C(=S)CSc2ccc(F)cc21 [Example 119, 6-Fluoro-2H-1,4-benzothiazine-3-thione-4-acetic acid] | 46 ± 2
CC1Sc2ccccc2N(CC(=O)O)C1=S (stereo not shown) [Example 132, 2-Methyl-2H-1,4-benzothiazine-3-thione-4-acetic acid] | 42 ± 13
O=C(O)CN1C(=S)CSc2ccccc21 [Example 133, 2H-1,4-Benzothiazine-3-thione-4-acetic acid] | 54 ± 5
O=C(O)CN1C(=S)COc2ccc(F)cc21 [Example 152, 6-Fluoro-2H-1,4-benzoxazine-3-thione-4-acetic acid] | 86 ± 4
O=C(O)CN1C(=S)CCc2cc(Cl)ccc21 [Example 154, 6-Chloro-3,4-dihydroquinoline-2-thione-1-acetic acid] | 91 ± 15
